Where two headings read alike, the source gives them in different places.
Columns and labels:
human TLR8 = biological target: T1, human TLR8 (Homo sapiens, UniProt Q9NR97); test: Human TLR8 reporter gene assay (NF-κB induction), HEK-Blue-8 cells; type: cell-based
T1 construct: expressed in transfected cells; host or cells: HEK293 (HEK-Blue-8)
T1 sequence (Q9NR97 27-1041): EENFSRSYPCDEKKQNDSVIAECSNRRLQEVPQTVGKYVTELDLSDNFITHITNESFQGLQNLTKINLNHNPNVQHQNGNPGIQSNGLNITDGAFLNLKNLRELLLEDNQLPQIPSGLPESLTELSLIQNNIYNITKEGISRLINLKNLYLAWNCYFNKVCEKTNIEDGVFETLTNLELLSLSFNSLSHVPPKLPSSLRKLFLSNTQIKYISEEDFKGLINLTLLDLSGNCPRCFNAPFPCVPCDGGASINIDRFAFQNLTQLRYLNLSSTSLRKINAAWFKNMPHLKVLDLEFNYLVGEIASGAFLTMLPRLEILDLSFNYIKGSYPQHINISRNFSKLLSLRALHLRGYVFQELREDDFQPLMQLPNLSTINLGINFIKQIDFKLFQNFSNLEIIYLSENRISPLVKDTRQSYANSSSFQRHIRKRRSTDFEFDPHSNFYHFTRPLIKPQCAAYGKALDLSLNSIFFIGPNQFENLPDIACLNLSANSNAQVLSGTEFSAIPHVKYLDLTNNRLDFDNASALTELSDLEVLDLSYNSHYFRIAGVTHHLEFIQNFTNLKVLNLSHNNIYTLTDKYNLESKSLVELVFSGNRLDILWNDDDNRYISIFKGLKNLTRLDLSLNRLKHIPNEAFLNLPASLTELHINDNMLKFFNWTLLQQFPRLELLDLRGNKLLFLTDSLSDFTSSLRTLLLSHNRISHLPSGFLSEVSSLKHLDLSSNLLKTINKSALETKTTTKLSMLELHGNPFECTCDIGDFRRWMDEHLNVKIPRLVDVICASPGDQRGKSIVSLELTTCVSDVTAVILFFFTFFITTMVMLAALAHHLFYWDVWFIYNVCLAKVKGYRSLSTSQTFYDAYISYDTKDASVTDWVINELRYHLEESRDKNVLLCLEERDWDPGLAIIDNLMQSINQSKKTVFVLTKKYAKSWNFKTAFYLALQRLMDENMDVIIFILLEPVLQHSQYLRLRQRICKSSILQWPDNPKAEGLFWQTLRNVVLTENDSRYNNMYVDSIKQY
Excerpt: (§1) Human TLR-7/-8 Reporter Gene Assays (NF-κB Induction).
(§2) The induction of NF-κB was quantified using HEK-Blue-7 (hTLR7-specific) and HEK-Blue-8 (hTLR8-specific) cells. HEK293 cells stably co-transfected with human TLR7 or human TLR8, MD2, and secreted alkaline phosphatase (sAP), were maintained in HEK-Blue™ Selection medium containing zeocin and normocin. Stable expression of secreted alkaline phosphatase (sAP) under control of NF-κB/AP-1 promoters is inducible by appropriate TLR agonists, and extracellular sAP in the supernatant is proportional to NF-κB induction.
(§3) HEK293 cells stably co-transfected with the appropriate hTLR (or NOD) and secreted alkaline phosphatase (sAP) were maintained in HEK-Blue™ Selection medium. Stable expression of secreted alkaline phosphatase (sAP) under control of NF-κB/AP-1 promoters is inducible by appropriate TLR/NOD agonists, and extracellular sAP in the supernatant is proportional to NF-κB induction.

human TLR7 = biological target: T2, human TLR7 (Homo sapiens, UniProt Q9NYK1); test: Human TLR7 reporter gene assay (NF-κB induction), HEK-Blue-7 cells; type: cell-based
T2 construct: expressed in transfected cells; host or cells: HEK293 (HEK-Blue-7)
T2 sequence (Q9NYK1 27-1049): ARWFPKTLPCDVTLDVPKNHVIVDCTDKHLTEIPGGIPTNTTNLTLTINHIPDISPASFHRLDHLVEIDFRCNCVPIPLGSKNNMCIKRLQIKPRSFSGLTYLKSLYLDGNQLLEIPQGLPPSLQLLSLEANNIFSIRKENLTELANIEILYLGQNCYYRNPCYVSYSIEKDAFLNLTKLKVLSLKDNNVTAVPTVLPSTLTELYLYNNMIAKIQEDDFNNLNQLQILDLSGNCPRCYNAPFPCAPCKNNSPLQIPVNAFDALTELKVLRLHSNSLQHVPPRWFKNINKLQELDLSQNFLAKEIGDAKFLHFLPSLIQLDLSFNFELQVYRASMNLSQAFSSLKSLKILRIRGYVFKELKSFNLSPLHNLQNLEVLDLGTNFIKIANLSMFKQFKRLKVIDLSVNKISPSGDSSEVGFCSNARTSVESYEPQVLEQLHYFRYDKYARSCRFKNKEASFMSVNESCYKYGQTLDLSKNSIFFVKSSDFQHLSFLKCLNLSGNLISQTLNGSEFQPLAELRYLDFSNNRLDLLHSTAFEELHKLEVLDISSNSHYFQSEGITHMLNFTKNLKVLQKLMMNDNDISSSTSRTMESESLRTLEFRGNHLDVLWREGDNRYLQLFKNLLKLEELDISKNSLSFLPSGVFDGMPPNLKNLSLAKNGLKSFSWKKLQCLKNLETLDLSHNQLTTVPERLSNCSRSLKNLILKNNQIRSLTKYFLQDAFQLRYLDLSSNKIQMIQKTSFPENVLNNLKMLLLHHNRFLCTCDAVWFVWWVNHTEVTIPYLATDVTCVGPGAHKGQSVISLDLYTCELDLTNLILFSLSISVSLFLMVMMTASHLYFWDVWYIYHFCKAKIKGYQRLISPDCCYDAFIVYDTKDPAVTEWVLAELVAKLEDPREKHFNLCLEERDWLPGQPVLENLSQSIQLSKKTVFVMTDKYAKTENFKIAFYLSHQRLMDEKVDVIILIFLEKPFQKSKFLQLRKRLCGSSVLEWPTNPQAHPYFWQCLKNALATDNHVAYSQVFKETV
Excerpt: as §1, §2, §3

human PBMCs [1] = test: IFN-α induction in human PBMCs (ELISA); type: cell-based; conditions: PBMC
Method: (§4) Fresh human peripheral blood mononuclear cells (hPBMC) were isolated from human blood obtained by venipuncture with informed consent and as per institutional guidelines on Ficoll-Hypaque gradients as described elsewhere. Aliquots of PBMCs (10^5 cells in 100 μL/well) were stimulated for 12 h with graded concentrations of test compounds. Supernatants were isolated by centrifugation, and were assayed in triplicates using either high-sensitivity multi-subtype IFN-α ELISA kits (PBL Interferon Source, Piscataway, N.J. and R&D Systems, Inc., Minneapolis, Minn.), or analyte-specific multiplexed cytokine/chemokine bead array assays as reported by us previously.

[2] = Metabolic stability in human foreskin fibroblasts (microdialysis, LC-MS/MS); type: in vitro ADME; conditions: human, human foreskin fibroblasts (HFFs)
[3] = tested on: human foreskin fibroblasts (HFFs); test: as above; type: in vitro ADME
[4] = Metabolic stability in peripheral blood mononuclear cells (microdialysis, LC-MS/MS); type: in vitro ADME, human; conditions: human, peripheral blood mononuclear cells (PBMCs)
[5] = tested on: peripheral blood mononuclear cells (PBMCs); test: as above; type: in vitro ADME, human; conditions: PBMCs
[6] = tested on: human natural killer (NK), cytokine-induced killer (CIK) and nominal B lymphocytes; test: Flow-cytometric CD69 upregulation in lymphocytic subsets of whole human blood; type: cell-based
Method: Flow-Cytometric Immunostimulation Experiments.
CD69 upregulation was determined by flow cytometry and modified for rapid-throughput. Briefly, heparin-anticoagulated whole blood samples were obtained by venipuncture from healthy human volunteers with informed consent and as per guidelines approved by the University of Kansas Human Subjects Experimentation Committee. Serial dilutions of selected imidazopyridine compounds (and imiquimod, used as a reference compound) were performed using a Bio-Tek Precision 2000 XS liquid handler in sterile 96-well polypropylene plates, to which were added 100 μL aliquots of anticoagulated whole human blood. The plates were incubated at 37° C. for 16.5 h. Negative (endotoxin free water) controls were included in each experiment. Following incubation, fluorochrome-conjugated antibodies (CD3-PE, CD56-APC, CD69-PE-Cy7, 10 μL of each antibody, Becton-Dickinson Biosciences, San Jose, Calif.) were added to each well with a liquid handler, and incubated at 37° C. in the dark for 30 min. […] CD69 activation in the major lymphocytic populations, viz., natural killer lymphocytes (NK cells: CD3^−CD56^+), cytokine-induced killer phenotype (CIK cells: CD3^+CD56^+), nominal B lymphocytes (CD3^−CD56^−), and nominal T lymphocytes (CD3^+CD56^−) were quantified using FlowJo v 7.0 software (Treestar, Ashland, Oreg.). […]

[7] = Chemical stability of the free base (autoxidation); type: physicochemical; conditions: rapid formation of 3-ol A5 by autoxidation
Excerpt: A ring-contracted 2-amino-3-alkylindole analogue compound A4, accessed via sequential C-alkylation of commercially available 2-nitrophenylacetonitrile, reduction of the 2-nitro group, and Brønsted acid-promoted, microwave-assisted intramolecular cyclization (Scheme A1).

human PBMCs [8] = test: Proinflammatory cytokine induction in human PBMCs / human blood (bead array); type: cell-based; conditions: human PBMCs and whole human blood
Method: Immunoassays for Interferon (IFN)-α, and Cytokines.
as §4

Q: For CCCCc1nc2c(N)nccc2n1Cc1ccccc1 [Compound 5, 1-Benzyl-2-butyl-1H-imidazo[4,5-c]pyridin-4-amine], which TLR8 activity (human TLR8; TLR7 series) is on record?
A: The TLR8 activity was “negligible”.

Q: And the EC50 (human TLR7; primary screen, read-out: TLR7-specific agonistic activity EC50)?
A: Its EC50 is 1570 nM.

Q: Which “TLR7-agonistic potency relative to compound 5” value (human TLR7; fold over compound 5) does the source give for CCCCc1nc2c(N)nc(NCc3ccco3)cc2n1Cc1ccccc1 [Compound 19k, 1-Benzyl-2-butyl-N^6-(furan-2-ylmethyl)-1H-imidazo[4,5-c]pyridine-4,6-diamine] here?
A: Its value is “approximately twenty-fold”.

Q: What about the EC50 (human TLR7; human TLR7-specific reporter gene assay, Inactive = no activity up to 500 μg/mL, read-out: hTLR7-agonistic Activity (EC50)) of the same compound?
A: The EC50 was 75 nM.

Q: And the EC50 (human PBMCs [1])?
A: The EC50 was 700 nM.

Q: Which half-life [2] does the source give for CCCCc1nc2c(N)nc(NCc3ccc(CN)cc3)cc2n1Cc1ccccc1 [Compound 19p, N^6-(4-(aminomethyl)benzyl)-1-benzyl-2-butyl-1H-imidazo[4,5-c]pyridine-4,6-diamine] here?
A: Its half-life is less than 1 h.

Q: What about the “number of major metabolites identified by LC-MS/MS” value ([3]; FIG. 5B, Table A, cell type not stated) of the same compound?
A: The value was 6.

Q: And the “parent detected by LC-MS” value ([3]; HFFs, at 1 hour)?
A: The value was “nearly undetectable”.

Q: What about the half-life [4] of the same compound?
A: The half-life was 3 h.

Q: What about the “time by which parent was depleted” value [5] of the same compound?
A: The value was no more than 8 h.

Q: What about the “CD69 expression in natural killer, cytokine-induced killer and B lymphocytic subsets” value [6] of the same compound?
A: Its value is “as active as the reference TLR7 agonist IMDQ”.

Q: What about the EC50 (human PBMCs [1]) of the same compound?
A: Its EC50 is 300 nM.

Q: What does the source list for CCCCC1C(N)=Nc2ccccc21 (stereo not drawn) [Compound A4]?
A: stability of the free-base [7]: exceedingly unstable; hTLR8 Agonistic Activity (EC50) (human TLR8; human TLR 8-specific reporter gene assays): Unstable; TLR8-agonistic activity of the hydrochloride salt (human TLR8; hydrochloride salt): inactive

Q: For CCCCCn1c(N)nc2c(C)cccc21 [Compound A31a, 4-Methyl-1-pentyl-1H-benzo[d]imidazol-2-amine], which “CD69 upregulation in natural killer (NK) lymphocytes” value [6] is on record?
A: Its value is “complete absence”.

Q: And the “induction of proinflammatory cytokines, IL-12p40 and IFN-γ” value (human PBMCs [8])?
A: Its value is “induction”.

Q: And the EC50 (human TLR8; primary screens, read-out: TLR8-agonistic activity EC50)?
A: Its EC50 is 1130 nM.

Source: patent US10471139B2, “Toll-like receptor agonists” (The University of Kansas, priority 2013, dated 2019)
